Measurements from patent US20110150798A1, “COMPOSITIONS AND METHODS FOR INCREASING CELLULAR FAR AND BLEACHING SKIN” (priority 2009, published 2011).

Assays:
[1] = system: keratinocytes; assay: Lipid production in keratinocytes, Oil Red O staining; type: cell-based; settings: 2.5 uM, 48 hours, compared to DMSO control, FIG. 1
Text: FIG. 1 is a photograph of keratinocytes treated with troglitazone and stained for lipids.

[2] = system: human preadipocytes; assay: Lipid production in preadipocytes, Oil Red O staining; type: cell-based; settings: 1.1 uM, about 48 hours, FIG. 2 and FIG. 3
Text: FIG. 2 is a photograph of human preadipocytes treated with troglitazone and stained for lipids. FIG. 3 is a photograph of human preadipocytes treated with troglitazone and stained for lipids.

Cc1c(C)c2c(c(C)c1O)CCC(C)(COc1ccc(CC3SC(=O)NC3=O)cc1)O2 (racemic) [troglitazone, (RS)-5-(4-[(6-hydroxy-2,5,7,8-tetramethylchroman-2-yl)methoxy]benzyl)thiazolidine-2,4-dione]
lipid production in the cells (lipid droplets stained with Oil Red O) [1]: increase in lipid production | lipid production (quantity and size of lipid droplets stained with Oil Red O) [2]: increase in the lipid production
